Measurements reported in patent US8895585B2, “Nicotinamide derivative or salt thereof” (FUJIFILM Corporation, priority 2010, dated 2014).

Assays:
[1] = system: THP-1 cells; assay: TNFα generation assay; type: cell-based, human; conditions: Homo sapiens, THP-1, THP-1 cells; Table 22; read-out: IC50 in TNFα generation assay
Procedure, shortened: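 THP-1 cells differentiated to macrophage-like cells with 10 ng/ml IFN-γ for 2 days, preincubated with compound 30 min at room temperature, then cultured 7 h on plates coated with human IgG (10 μg/ml). Secreted TNFα measured by ELISA or AlphaLISA.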

[2] = molecular target: T1, glutathione S-transferase (GST)-fused full-length human Syk protein (Homo sapiens, UniProt P43405); assay: Syk enzyme assay; type: biochemical; conditions: Syk enzyme assay, Test Example 1; read-out: IC50 of Syk-inhibitory activity
T1 construct: (GST)-fused full-length human Syk protein; GST (glutathione S-transferase); purchased Carna Biosciences
Procedure, shortened: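 IC50 values come from a time-resolved FRET readout (615 and 665 nm) of substrate phosphorylation, measured after an EDTA stop and 1 h antibody binding. The kinase reaction ran 40 min at room temperature with 27 μM ATP and 0.4 μM biotin-peptide, following a 15 min compound preincubation with baculovirus-made GST-full-length human Syk.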

Row | SMILES | IC50 [1] [nM] | IC50 [2] [nM]
1 | COc1ccc(F)c(-c2cncc(Nc3nc(N[C@@H]4CCCC[C@@H]4N)c(F)cc3C(N)=O)c2)c1 (relative stereo) [Example 004-199, 6-(cis-2-aminocyclohexylamino)-5-fluoro-2-((5-(2-fluoro-5-methoxyphenyl)pyridin-3-yl)amino)nicotinamide] | 130 to 200 | < 10
2 | NC(=O)c1cc(F)c(N[C@@H]2CCCC[C@@H]2N)nc1Nc1ccc2nc(OCCN3CCOC3=O)ccc2c1 (relative stereo) [Example 004-201, 6-(cis-2-aminocyclohexylamino)-5-fluoro-2-((2-(2-(2-oxooxazolidin-3-yl)ethoxy)quinolin-6-yl)amino)nicotinamide] | 130 to 200 | < 10
3 | NC(=O)c1cc(F)c(N[C@@H]2CCCC[C@@H]2N)nc1Nc1cncc(-c2ncccn2)c1 (relative stereo) [Example 004-214, 6-(cis-2-aminocyclohexylamino)-5-fluoro-2-((5-(pyrimidin-2-yl)pyridin-3-yl)amino)nicotinamide] | 130 to 200 | 10 to 50
4 | NC(=O)c1cc(F)c(N[C@@H]2CCCC[C@@H]2N)nc1Nc1cncc(-c2cccc([N+](=O)[O-])c2)c1 (relative stereo) [Example 004-215, 6-(cis-2-aminocyclohexylamino)-5-fluoro-2-((5-(3-nitrophenyl)pyridin-3-yl)amino)nicotinamide] | 65 to 130 | < 10
5 | NC(=O)c1cc(F)c(N[C@@H]2CCCC[C@@H]2N)nc1Nc1cncc(-c2cccc(N)c2)c1 (relative stereo) [Example 004-217, 6-(cis-2-aminocyclohexylamino)-2-((5-(3-aminophenyl)pyridin-3-yl)amino)-5-fluoronicotinamide] | 65 to 130 | < 10
6 | NC(=O)c1cc(F)c(N[C@@H]2CCCC[C@@H]2N)nc1Nc1cncc(-c2ccc(N)cc2)c1 (relative stereo) [Example 004-218, 6-(cis-2-aminocyclohexylamino)-2-((5-(4-aminophenyl)pyridin-3-yl)amino)-5-fluoronicotinamide] | 65 to 130 | < 10
7 | CNc1cccc(-c2cncc(Nc3nc(N[C@@H]4CCCC[C@@H]4N)c(F)cc3C(N)=O)c2)c1 (relative stereo) [Example 004-219, 6-(cis-2-aminocyclohexylamino)-5-fluoro-2-((5-(3-(methylamino)phenyl)pyridin-3-yl)amino)nicotinamide] | 65 to 130 | < 10
8 | CNc1ccc(-c2cncc(Nc3nc(N[C@@H]4CCCC[C@@H]4N)c(F)cc3C(N)=O)c2)cc1 (relative stereo) [Example 004-220, 6-(cis-2-aminocyclohexylamino)-5-fluoro-2-((5-(4-(methylamino)phenyl)pyridin-3-yl)amino)nicotinamide] | 65 to 130 | < 10
9 | NC(=O)c1cc(F)c(N[C@@H]2CCCC[C@@H]2N)nc1Nc1cncc(-c2ccc(N3CCOCC3)cc2)c1 (relative stereo) [Example 004-222, 6-(cis-2-aminocyclohexylamino)-5-fluoro-2-((5-(4-morpholinophenyl)pyridin-3-yl)amino)nicotinamide] | 130 to 200 | < 10
10 | NC(=O)c1cc(F)c(N[C@@H]2CCCC[C@@H]2N)nc1Nc1cncc(-c2ccc(N3CCCC3=O)cc2)c1 (relative stereo) [Example 004-226, 6-(cis-2-aminocyclohexylamino)-5-fluoro-2-((5-(4-(2-oxopyrrolidin-1-yl)phenyl)pyridin-3-yl)amino)nicotinamide] | 130 to 200 | < 10
11 | CN(C)c1cccc(-c2cncc(Nc3nc(N[C@@H]4CCCC[C@@H]4N)c(F)cc3C(N)=O)c2)c1 (relative stereo) [Example 004-227, 6-(cis-2-aminocyclohexylamino)-2-((5-(3-(dimethylamino)phenyl)pyridin-3-yl)amino)-5-fluoronicotinamide] | 130 to 200 | < 10
12 | NC(=O)c1cc(F)c(N[C@@H]2CCCC[C@@H]2N)nc1Nc1cncc(-c2nnco2)c1 (relative stereo) [Example 004-229, 2-((5-(1,3,4-oxadiazol-2-yl)pyridin-3-yl)amino)-6-((cis-2-aminocyclohexyl)amino)-5-fluoronicotinamide] | 65 to 130 | < 10
13 | NC(=O)c1cc(F)c(N[C@@H]2CCCC[C@@H]2N)nc1Nc1ccc2ncncc2c1 (relative stereo) [Example 006-062, 6-(cis-2-aminocyclohexylamino)-5-fluoro-2-(quinazolin-6-ylamino)nicotinamide] | < 65 | < 10
14 | NC(=O)c1cc(F)c(N[C@@H]2CCCC[C@@H]2N)nc1Nc1cncc(-c2cc[nH]c2)c1 (relative stereo) [Example 006-116, 2-((5-(1H-pyrrol-3-yl)pyridin-3-yl)amino)-6-((cis-2-aminocyclohexyl)amino)-5-fluoronicotinamide] | 130 to 200 | < 10
15 | NC(=O)c1cc(F)c(N[C@@H]2CCCC[C@@H]2N)nc1Nc1cccc(-n2ccnn2)c1 (relative stereo) [Example 006-122, 2-(3-(1H-1,2,3-triazol-1-yl)phenylamino)-6-((cis-2-aminocyclohexyl)amino)-5-fluoronicotinamide] | 65 to 130 | < 10
16 | NC(=O)c1cc(F)c(N[C@@H]2CCCC[C@@H]2N)nc1Nc1cncc(-n2cccc2)c1 (relative stereo) [Example 006-123, 2-((5-(1H-pyrrol-1-yl)pyridin-3-yl)amino)-6-(cis-2-aminocyclohexylamino)-5-fluoronicotinamide] | 130 to 200 | < 10
17 | NC(=O)c1cc(F)c(N[C@@H]2CCCC[C@@H]2N)nc1Nc1ccnc(-n2cccc2)c1 (relative stereo) [Example 006-124, 2-((2-(1H-pyrrol-1-yl)pyridin-4-yl)amino)-6-((cis-2-aminocyclohexyl)amino)-5-fluoronicotinamide] | 130 to 200 | < 10
18 | NC(=O)c1cc(F)c(N[C@@H]2CCCC[C@@H]2N)nc1Nc1ccnc(-n2nccn2)c1 (relative stereo) [Example 006-125, 2-((2-(2H-1,2,3-triazol-2-yl)pyridin-4-yl)amino)-6-((cis-2-aminocyclohexyl)amino)-5-fluoronicotinamide] | 65 to 130 | < 10
19 | NC(=O)c1cc(F)c(N[C@@H]2CCCC[C@@H]2N)nc1Nc1ccnc(-n2ccnn2)c1 (relative stereo) [Example 006-126, 2-((2-(1H-1,2,3-triazol-1-yl)pyridin-4-yl)amino)-6-((cis-2-aminocyclohexyl)amino)-5-fluoronicotinamide] | < 65 | < 10
20 | NC(=O)c1cc(F)c(N[C@@H]2CCCC[C@@H]2N)nc1Nc1ccnc(-n2ccnc2)c1 (relative stereo) [Example 006-128, 2-((2-(1-imidazol-1-yl)pyridin-4-yl)amino)-6-((cis-2-aminocyclohexyl)amino)-5-fluoronicotinamide] | 130 to 200 | 10 to 50
21 | NC(=O)c1cc(F)c(N[C@@H]2CCCC[C@@H]2N)nc1Nc1cncc(-n2cccn2)c1 (relative stereo) [Example 006-129, 2-((5-(1H-pyrazol-1-yl)pyridin-3-yl)amino)-6-((cis-2-aminocyclohexyl)amino)-5-fluoronicotinamide] | < 65 | < 10
